# Experimental data reported in patent US20220402883A1, “COMPOUNDS AND METHODS FOR MODULATING RNA FUNCTION” (Arrakis Therapeutics, Inc., priority 2016, published 2022).
# Assays:
# [1] = test system: Split3WJ.1_up_5IB+Split3WJ.1_down_3FAM (trans 3WJ as 1:1 mix); assay: Fluorescence quenching binding assay (FAM / Iowa Black); conditions: two concentration points
# Description: (§1) This assay will be used to test binding of compounds for RNA three way junction (such as a 38 nt construct). This is a fluorescence quenching assay utilizing FAM as fluorescence tag and Iowa Black as quencher. Tags are attached at the 3′ and 5′ end, respectively. Stable formation of MW upon compound binding would lead to quenching of the FAM fluorescence due to close proximity of the Iowa Black tag. Assay readout: FAM (485-520 nm) Fluorescence Intensity.
# (§2) Assay sample buffer used: 10 mM CacoK pH 7.2, 30 mM NaCl. Buffer preparation in Dnase/Rnase Free distilled water (Gibco Life Technologies).
# (§3) Dilute the RNA 1:10 (final 10 μM) in Assay Buffer.
# (§4) Heat up the diluted RNA up to 90° C. for 5 min (sealed Eppendorf Tube).
# (§5) Cool down the RNA probe slowly to RT.
# (§6) Dilute the compounds to 800 μM in DMSO (Assay: 8 μM).
# (§7) Final concentrations in the sample: 1-10 μM RNA, 8 μM compound, 1% DMSO
# (§8) Pipet 25 μL Sample Solution into Greiner cat #784076, black, 384
# (§9) Measure the 96 plate with the LightCycler480 (Channel: 485/520 nm).
# (§10) The fluorescence quenching experiment was repeated for compounds Ark0000013 and Ark0000014 to measure binding with:
# B) Split3WJ.1_up_5IB+Split3WJ.1_down_3FAM (trans 3WJ as 1:1 mix)
# (§11) Both cmpds were tested at two concentration points in the fluorescence quenching assays to assess effect upon RNA constructs utilized in the study. […]
# RNA3WJ_2.0.0_5IB_3FAM = assay: Thermal shift binding assay; conditions: 1 μM RNA, 8 μM compound, 10 mM CacoK pH 7.2, 30 mM NaCl
# Excerpt: (§12) Purpose: Test binding of compounds for RNA three way junction (for example, a construct of 38 nt). Thermal shift assay based on established fluorescence quenching assay utilizing FAM as fluorescence tag and Iowa Black as quencher. Tags were attached at the 3′ and 5′ end, respectively. Stable formation of 3WJ upon compound binding would lead to quenching of the FAM fluorescence due to close proximity of the Iowa Black tag. Thermal unfolding leads to increase of fluorescence emission. Assay readout: FAM (465-510 nm) Thermal Shift.
# as §2, §3, §4, §5, §6
# (§13) Final concentrations in the sample: 1 μM RNA, 8 μM compound, 1% DMSO
# (§14) Pipet 20 μL Sample Solution into Roche, Light Cycler480 Multiwell Plate96, white, REF 04729692001.
# (§15) Measure the 96 plate with the LightCycler480 (Channel: 480/510 nm; Temperature: 41-91° C.).
# (§16) Analyse measurement-data with the MeltingCurveGenotyping Mode.
# (§17) Settings: Acquisition mode: continuous; Ramp rate: 0.1° C./sec; Acquisition: 6° C.
# (§18) Curves are fitted with raw and normalized data.
# (§19) Melting curves analysis show melting temperature (Tm) of ˜51° C. Range of RNA concentrations was tested and assay window was determined (conc. range of 0.5-1 μM yields best results). The choice of buffer also affected the Tm. RNA constructs were tested under different buffer conditions (especially in presence of salt) in the thermal shift assay. […] CacoK with 30 mM salt at 1 μM RNA conc. was used to assess compound effects on 3WJ stability. […] These conditions were used for screening test compounds.
# RNA3WJ_2.1.0_5IB_3FAM = assay: Thermal shift binding assay; conditions: 1 μM RNA, 8 μM compound, 10 mM CacoK pH 7.2, 30 mM NaCl
# Excerpt: as §12, §2, §3, §4, §5, §6, §13, §14, §15, §16, §17, §18, §19
# RNA3WJ_1.1.0_5IB_3FAM = assay: Thermal shift binding assay; conditions: 1 μM RNA, 8 μM compound, 10 mM CacoK pH 7.2, 30 mM NaCl
# Excerpt: as §12, §2, §3, §4, §5, §6, §13, §14, §15, §16, §17, §18, §19
# RNA3WJ_1.1.1_5IB_3FAM = assay: Thermal shift binding assay; conditions: 1 μM RNA, 8 μM compound, 10 mM CacoK pH 7.2, 30 mM NaCl
# Excerpt: as §12, §2, §3, §4, §5, §6, §13, §14, §15, §16, §17, §18, §19
# [2] = test system: RNA3WJ_1.0.0_5IB_3FAM (cis 3WJ with one unpaired nucleotide); assay: Fluorescence quenching binding assay (FAM / Iowa Black); conditions: two concentration points
# Description: as §1, §2, §3, §4, §5, §6, §7, §8, §9, §10
# A) RNA3WJ_1.0.0_5IB_3FAM (cis 3WJ with one unpaired nucleotide)
# as §11
# RNA3WJ_3.0.0_5IB_3FAM = assay: Thermal shift binding assay; conditions: 1 μM RNA, 8 μM compound, 10 mM CacoK pH 7.2, 30 mM NaCl
# Excerpt: as §12, §2, §3, §4, §5
# (§20) Dilute the compounds to 800 μM in DMSO (Assay: 8 μM). […]
# as §14, §15, §16, §17, §18, §19
# [3] = test system: RNA3WJ_0.0.0_5IB_3FAM (3WJ_0.0.0_5IB_3FAM RNA construct); assay: Thermal shift binding assay
# Excerpt: as §12, §2, §3, §4, §5, §20, §14, §15, §16, §17, §18, §19
# [4] = test system: Split3WJ.2 up_5IB+Split3WJ.2_down_3FAM (trans 3WJ as 1:1 mix); assay: Fluorescence quenching binding assay (FAM / Iowa Black); conditions: two concentration points
# Description: as §1, §2, §3, §4, §5, §6, §7, §8, §9, §10
# C) Split3WJ.2 up_5IB+Split3WJ.2_down_3FAM (trans 3WJ as 1:1 mix)
# as §11
# [5] = test system: RNA3WJ_1.0.0_5IB_3FAM (cis 3WJ with one unpaired nucleotide); assay: Thermal shift binding assay; conditions: 1 μM RNA, 8 μM compound, 10 mM CacoK pH 7.2, 30 mM NaCl
# Excerpt: as §12, §2, §3, §4, §5, §6, §13, §14, §15, §16, §17, §18, §19
# (§21) Compounds Ark0000013 and Ark0000014 were also tested in the thermal shift assay against three RNA 3WJ constructs, A) RNA3WJ_1.0.0_5IB_3FAM (cis 3WJ with one unpaired nucleotide); B) Split3WJ.1_up_5IB+Split3WJ.1_down_3FAM (trans 3WJ as 1:1 mix); and C) Split3WJ.2_up_5IB+Split3WJ.2_down_3FAM (trans 3WJ as 1:1 mix).
# [6] = test system: Split3WJ.1_up_5IB+Split3WJ.1_down_3FAM (trans 3WJ as 1:1 mix; Split3WJ_1); assay: Thermal shift binding assay; conditions: 1 μM RNA, 8 μM compound, 10 mM CacoK pH 7.2, 30 mM NaCl
# Excerpt: as §12, §2, §3, §4, §5, §6, §13, §14, §15, §16, §17, §18, §19, §21
# [7] = test system: Split3WJ.2_up_5IB+Split3WJ.2_down_3FAM (trans 3WJ as 1:1 mix; Split3WJ_2); assay: Thermal shift binding assay; conditions: 1 μM RNA, 8 μM compound, 10 mM CacoK pH 7.2, 30 mM NaCl
# Excerpt: as §12, §2, §3, §4, §5, §6, §13, §14, §15, §16, §17, §18, §19, §21
# [8] = 1 μM RNA, 8 μM compound, 10 mM CacoK pH 7.2, 30 mM NaCl
compound,measurement,setting,value
"NCCCCCCCNC(=O)c1ccc2c(c1)C1c3cc(C(=O)NCCCCCCCN)ccc3C2c2ccc(C(=O)NCCCCCCCN)cc21 [Ark000014, N^2,N^7,N^15-tris(7-aminoheptyl)-9,10-dihydro-9,10-[1,2]benzenoanthracene-2,7,15-tricarboxamide]",fluorescence quenching effect (FAM fluorescence signal),[1],smaller effect
same,Melting temp + cmpd,RNA3WJ_2.0.0_5IB_3FAM,64.4 °C
same,Temp. Shift,RNA3WJ_2.0.0_5IB_3FAM,2.2 °C
same,Melting temp + cmpd,RNA3WJ_2.1.0_5IB_3FAM,42.0 °C
same,Temp. Shift,RNA3WJ_2.1.0_5IB_3FAM,0.1 °C
same,Melting temp + cmpd,RNA3WJ_1.1.0_5IB_3FAM,65.1 °C
same,Temp. Shift,RNA3WJ_1.1.0_5IB_3FAM,1.8 °C
same,Melting temp + cmpd,RNA3WJ_1.1.1_5IB_3FAM,64.3 °C
same,Temp. Shift,RNA3WJ_1.1.1_5IB_3FAM,2.1 °C
same,fluorescence quenching effect (FAM fluorescence signal),[2],smaller effect
same,Melting temp + cmpd,RNA3WJ_3.0.0_5IB_3FAM,63.9 °C
same,Temp. Shift,RNA3WJ_3.0.0_5IB_3FAM,1.9 °C
same,Melting temp + cmpd,[3]; [8],61.5 °C
same,Temp. Shift,[3]; [8],1.6 °C
same,Melt. Temp. with cmpd,"[3]; RNA sequence 3WJ_0.0.0_5IB_FAM, melting temperature in presence of compound",61.5 °C
same,Shift melt. Temp.,"[3]; RNA sequence 3WJ_0.0.0_5IB_FAM, with cmpd minus without cmpd",+1.6 °C
same,fluorescence quenching effect (FAM fluorescence signal),[4],Split3WJ_2 shows larger effect
same,Melting temp + cmpd,[5],68.4 °C
same,Temp. Shift,[5],~3 °C
same,Melting temp + cmpd,[5]; listed as Ark0000014,68.1 °C
same,Temp. Shift,[5]; listed as Ark0000014,2.5 °C
same,Melting temp + cmpd,[6],38.8 °C
same,Temp. Shift,[6],~1 °C
same,Melting temp + cmpd,[6]; listed as Ark0000014,37.8 °C
same,Temp. Shift,[6]; listed as Ark0000014,0.3 °C
same,Melting temp + cmpd,[7],44.7 °C
same,Temp. Shift,[7],~1 °C
same,Melting temp + cmpd,[7]; listed as Ark0000014,44.0 °C
same,Temp. Shift,[7]; listed as Ark0000014,−0.3 °C
